Results published in US20030064954A1, “Cationic amphiphilic 1,4-dihydropyridine derivatives useful for delivery of nucleotide containing compounds” (priority 2000, published 2003).
Blank lines part the entries; values can stand above or below the compound they belong to.

Columns and labels:
D 407 cells = test: Cytotoxicity of amphiphile/DNA complexes, percentage of survived cells; type: cell-based, human; design: concentration or dose not given beside the values
plasmid DNA = test: DNA condensation/complexation, EtBr displacement assay; type: binding
Protocol: The ability of the cationic amphiphiles to condense DNA was assessed with an EtBr displacement assay. Briefly, in 96 well plates plasmid DNA (0.6 μg per well) was reacted with 0.002% EtBr in 20 mM HEPES—150 mM NaCl buffer, pH 7.4 and fluorescence intensity was measured at 530 nm (excitation) and 590 nm (emission). Intercalation of EtBr molecules between the base pairs of the DNA double helix results in increased fluorescence signal. Immediately thereafter, the cationic liposomes were added to form complexes at different +/−charge ratios and the quenching of fluorescence intensity of EtBr was monitored. Condensation of DNA upon complexation with liposomes results in the displacement of EtBr from DNA and in decreased fluorescence signal. Fluorescence was measured using FL 500 microplate fluorescence reader (Bio-Tek Instruments Inc., Winooski, Vt., USA).
The values are expressed as percentage of the maximum fluorescence signal when EtBr bound to DNA in the absence of an amphiphile. Each data point is from at least triplicate experiment ±S.D.

[1] = test system: D407 (human retinal pigment epithelial) cells; test: In vitro transfection of plasmid DNA, β-galactosidase activity per well; type: cell-based; settings: D 407
CVI-P cells = test: Cytotoxicity of amphiphile/DNA complexes, percentage of survived cells
[2] = test system: CV-1P (African monkey green kidney fibroblasts cells); test: In vitro transfection of plasmid DNA, β-galactosidase activity per well; type: cell-based; settings: CVI-P
Protocol: Transfer of plasmid DNA by various compounds was investigated by using CV-1P (African monkey green kidney fibroblasts cells) and D407 (human retinal pigment epithelial) cells.
The cells were cultured in Dulbecco's modified Eagle's medium (DMEM, Gibco), supplemented with 10% fetal bovine serum (FBS), penicillin/streptomycin (100 units/ml and 100 μg/ml respectively) and 2 mM L-glutamine for D 407 cell line. Cell cultures were maintained at 37° C. in a 7% CO2/air incubator. The cells were collected, counted and seeded in growth medium (100 μl) into 96-well culture plate, 20 000 cells per well. One day later the medium was replaced with fresh medium without serum (150 μl)
In the case of confluent CV1-P cells the medium (with of without serum) was changed on fourth day of cell growth before the transfection.
The complexes at different derivative/DNA charge ratios for transfection procedure were prepared just before use in 50 mM MES—50 mM HEPES—75 mM NaCl buffer, pH 7.2 in separate 96 well plates. One hour after changing the serum-free medium with 10% serum the complexes were added to the cells at […]. Dose of DNA per well was 0.6 μg. After 5 h the complexes were removed, the cells were washed with PBS, and the normal growth medium was added. After 45 h of incubation at 37° C. the cells were lysed with 2% Triton X 100, twice deep frozen and the β-galactosidase activity in each well was determined spectrofotometrically with ELx800 automated microplate reader (Bio-Tex Instruments Inc., Winooski, Vt. USA) by monitoring the hydrolysis of o-nitrophenylgalactopyranoside (oNPG) at 405 nm. Purified β-galactosidase from E.coli was used to construct a standard curve and to calculate […] activity in the transfected cells. […] Transfection efficiencies are given as percentage in comparison to transfection efficiency of Lipofectin^R.

[3] = amphiphile/DNA +/− charge ratio 0.5
[4] = amphiphile/DNA +/− charge ratio 1
[5] = amphiphile/DNA +/− charge ratio 2
[6] = amphiphile/DNA +/− charge ratio 4
[7] = amphiphile/DNA +/− charge ratio 8

melting point: 95 to 98 °C
SMILES: Br.CCCCCCCCCCCCCCCC[n+]1ccc(C2C(C(=O)OCC)=C(C)NC(C)=C2C(=O)OCC)cc1.[Br-]

melting point: 212 to 213 °C (dec.)
SMILES: Br.CCOC(=O)C1=C(C)NC(C)=C(C(=O)OCC)C1c1ccc[n+](Cc2ccc([N+](=O)[O-])cc2)c1.[Br-]

melting point: 59 to 61 °C
SMILES: CCCOCCOC(=O)C1=C(C)NC(C)=C(C(=O)OCCOCCC)C1c1ccc[n+](C)c1.I.[I-] [VIII, 1′,4′-Dihydro-1,2′,6′-trimethyl-3′,5′-bis[(2-propoxyethoxy)-carbonyl]-3,4′-bipyridinium iodide]

melting point: 180 °C (dec.)
SMILES: Br.CCOC(=O)C[n+]1cccc(C2C(C(=O)OC)=C(C)NC(C)=C2C(=O)OC)c1.[Br-]

melting point: 99 to 102 °C
SMILES: Br.CCCCCCCCCCCCCCCCOC(=O)C1=C(C)NC(C)=C(C(=O)OCCCCCCCCCCCCCCCC)C1c1ccc[n+](CC(=O)OCC)c1.[Br-]

SMILES: CCCCOC(=O)C1=C(C)NC(C)=C(C(=O)OCCCC)C1c1ccc[n+](C)c1.I.[I-] [Example 2a, 3′,5′-Bis(butoxycarbonyl)-1′,4′-dihydro-1,2′,6′-trimethyl-3,4′-bipyridinium iodide]
melting point: 161 to 164 °C

melting point: 135 to 138 °C
SMILES: Br.CCCOCCOC(=O)C1=C(C)NC(C)=C(C(=O)OCCOCCC)C1c1ccc[n+](CC(=O)c2ccccc2)c1.[Br-]

melting point: 117 to 121 °C
SMILES: Br.CCCCCCCCCCCCCCCC[n+]1ccccc1C1C(C(=O)OCC)=C(C)NC(C)=C1C(=O)OCC.[Br-]

melting point: 202 to 203 °C
SMILES: CC1=C(C(=O)OCc2ccc([N+](=O)[O-])cc2)C(c2ccc[n+](C)c2)C(C(=O)OCc2ccc([N+](=O)[O-])cc2)=C(C)N1.I.[I-]

melting point: 178 to 180 °C
SMILES: CCOC(=O)C1=C(C)NC(C)=C(C(=O)OCC)C1c1ccc[n+](-c2ccc([N+](=O)[O-])cc2[N+](=O)[O-])c1.Cl.[Cl-]

melting point: 89 to 93 °C
SMILES: Br.CCCCCCCCCCCCCCCC[n+]1cccc(C2C(C(=O)OCc3ccc([N+](=O)[O-])cc3)=C(C)NC(C)=C2C(=O)OCc2ccc([N+](=O)[O-])cc2)c1.[Br-]

melting point: 163 to 165 °C
SMILES: Br.CCOCCOC(=O)C1=C(C)NC(C)=C(C(=O)OCCOCC)C1c1ccc[n+](CC(=O)OCC)c1.[Br-]

melting point: 211 to 216 °C
SMILES: Br.CCOC(=O)C1=C(C)NC(C)=C(C(=O)OCC)C1c1cc[n+](CC(=O)c2ccc3ccccc3c2)cc1.[Br-]

melting point: 180 °C (dec.)
SMILES: Br.CCOC(=O)C[n+]1cccc(C2C(C(=O)OC3CC(C)CCC3C(C)C)=C(C)NC(C)=C2C(=O)OC2CC(C)CCC2C(C)C)c1.[Br-] (centres unmarked)

melting point: 144 to 146 °C
SMILES: Br.CCCOCCOC(=O)C1=C(C)NC(C)=C(C(=O)OCCOCCC)C1c1ccc[n+](CC(=O)OCC)c1.[Br-]

melting point: 224 to 227 °C
SMILES: Br.CCOC(=O)C1=C(C)NC(C)=C(C(=O)OCC)C1c1cc[n+](CC(=O)c2ccccc2)cc1.[Br-]

melting point: 148 to 150 °C
SMILES: Br.CCCCCCCCCCCCCCCCOC(=O)C1=C(C)NC(C)=C(C(=O)OCCCCCCCCCCCCCCCC)C1c1ccc[n+](CC(=O)c2ccccc2)c1.[Br-]

melting point: 152 to 156 °C
SMILES: Br.CCOC(=O)C1=C(C)NC(C)=C(C(=O)OCC)C1c1ccc[n+](CCCCCCCCCCCC(=O)O)c1.[Br-]

melting point: 140 to 143 °C
SMILES: Br.CCOC(=O)C[n+]1ccc(C2C(C(=O)OCC)=C(C)NC(C)=C2C(=O)OCC)cc1.[Br-]

melting point: 270 °C (dec.)
SMILES: CC1=C(C(=O)OC2CC3CCC2(C)C3(C)C)C(c2cc[n+](C)cc2)C(C(=O)OC2CC3CCC2(C)C3(C)C)=C(C)N1.I.[I-] (centres unmarked) [Example 2u, 3′,5′-Bis(bornyloxycarbonyl)-1′,4′-dihydro-1,2′,6′-trimethyl-4,4′-bipyridinium iodide]

complexation, percentage of the maximum fluorescence signal when EtBr bound to DNA in the absence of an amphiphile (plasmid DNA; [3]): 88,8%
complexation, percentage of the maximum fluorescence signal when EtBr bound to DNA in the absence of an amphiphile (plasmid DNA; [4]): 80,33%
complexation, percentage of the maximum fluorescence signal when EtBr bound to DNA in the absence of an amphiphile (plasmid DNA; [5]): 75,17%
complexation, percentage of the maximum fluorescence signal when EtBr bound to DNA in the absence of an amphiphile (plasmid DNA; [6]): 71,93%
complexation, percentage of the maximum fluorescence signal when EtBr bound to DNA in the absence of an amphiphile (plasmid DNA; [7]): 72,4%
SMILES: CCCCCCCCCCCCOC(=O)C1=C(C)NC(C)=C(C(=O)OCCCCCCCCCCCC)C1c1ccc[n+](C)c1.I.[I-] [V, 3′,5′-Bis(dodecyloxycarbonyl)-1′,4′-dihydro-1,2′,6′-trimethyl-3,4′-bipyridinium iodide]
cytotoxicity as a percentage of survived cells (D 407 cells; [3]): 85,27%
cytotoxicity as a percentage of survived cells (D 407 cells; [4]): 66,05%
cytotoxicity as a percentage of survived cells (D 407 cells; [5]): 55,61%
cytotoxicity as a percentage of survived cells (D 407 cells; [6]): 9,14%
cytotoxicity as a percentage of survived cells (D 407 cells; [7]): 0,28%
transfection efficiency [1, 3]: 0,26 β-galactosidase units per well
transfection efficiency [1, 4]: 8,10 β-galactosidase units per well
transfection efficiency [1, 5]: 8,78 β-galactosidase units per well
transfection efficiency [1, 6]: 0,55 β-galactosidase units per well
transfection efficiency [1, 7]: 0,33 β-galactosidase units per well
cytotoxicity as a percentage of survived cells (CVI-P cells; [3]): 100,21%
cytotoxicity as a percentage of survived cells (CVI-P cells; [4]): 87,18%
cytotoxicity as a percentage of survived cells (CVI-P cells; [5]): 71,79%
cytotoxicity as a percentage of survived cells (CVI-P cells; [6]): 40,55%
cytotoxicity as a percentage of survived cells (CVI-P cells; [7]): 8,67%
transfection efficiency [2, 3]: 0,48 β-galactosidase units per well
transfection efficiency [2, 4]: 0,69 β-galactosidase units per well
transfection efficiency [2, 5]: 27,19 β-galactosidase units per well
transfection efficiency [2, 6]: 5,95 β-galactosidase units per well
transfection efficiency [2, 7]: 1,4 β-galactosidase units per well

melting point: 159 to 165 °C
SMILES: Br.CCCCCCCCCCCCCCCC[n+]1cccc(C2C(C(=O)OC(C)CC)=C(C)NC(C)=C2C(=O)OC(C)CC)c1.[Br-] (centres unmarked)

melting point: 197 to 199 °C
SMILES: Br.CCOC(=O)C[n+]1ccccc1C1C(C(=O)OCC)=C(C)NC(C)=C1C(=O)OCC.[Br-]

melting point: 134 to 136 °C
SMILES: Br.CCOC(=O)C1=C(C)NC(C)=C(C(=O)OCC)C1c1ccc[n+](CCCCCCCCCCC(=O)O)c1.[Br-]

melting point: 197 to 199 °C
SMILES: CCOC(=O)C1=C(C)NC(C)=C(C(=O)OCC)C1c1cccc[n+]1C.I.[I-] [Example 2v, 3′,5′-Bis(ethoxycarbonyl)-1′,4′-dihydro-1,2′,6′-trimethyl-2,4′-bipyridinium iodide]

SMILES: Br.CCCCCCCCCCCCCCCC[n+]1cccc(C2C(C(=O)OC3CC(C)CCC3C(C)C)=C(C)NC(C)=C2C(=O)OC2CC(C)CCC2C(C)C)c1.[Br-] (centres unmarked) [XVIII, 1-Hexadecyl-1′,4′-dihydro-3′,5′-bis(menthyloxycarbonyl)-2′,6′-dimethyl-3,4′-bipyridinium bromide]
melting point: 115 to 117 °C
complexation, percentage of the maximum fluorescence signal when EtBr bound to DNA in the absence of an amphiphile (plasmid DNA; [3]): 97,5%
complexation, percentage of the maximum fluorescence signal when EtBr bound to DNA in the absence of an amphiphile (plasmid DNA; [4]): 90,8%
complexation, percentage of the maximum fluorescence signal when EtBr bound to DNA in the absence of an amphiphile (plasmid DNA; [5]): 82,6%
complexation, percentage of the maximum fluorescence signal when EtBr bound to DNA in the absence of an amphiphile (plasmid DNA; [6]): 78,5%
complexation, percentage of the maximum fluorescence signal when EtBr bound to DNA in the absence of an amphiphile (plasmid DNA; [7]): 79,6%
cytotoxicity as a percentage of survived cells (CVI-P cells; [3]): 85,15%
cytotoxicity as a percentage of survived cells (CVI-P cells; [4]): 83,94%
cytotoxicity as a percentage of survived cells (CVI-P cells; [5]): 76,51%
cytotoxicity as a percentage of survived cells (CVI-P cells; [6]): 9,08%
cytotoxicity as a percentage of survived cells (CVI-P cells; [7]): 3,05%

melting point: 166 to 169 °C
SMILES: CC1=C(C(=O)OC(C)(C)C)C(c2ccc[n+](C)c2)C(C(=O)OC(C)(C)C)=C(C)N1.I.[I-] [Example 2c, 3′,5′-Bis[(1,1-dimethylethoxy)carbonyl]-1′,4′-dihydro-1,2′,6′-trimethyl-3,4′-bipyridinium iodide]

melting point: 165 to 167 °C
SMILES: CCCCCCC[n+]1cccc(C2C(C(=O)OCC)=C(C)NC(C)=C2C(=O)OCC)c1.I.[I-] [Example 5a, 3′,5′-Bis(ethoxycarbonyl)-1-heptyl-1′,4′-dihydro-2′,6′-dimethyl-3,4′-bipyridinium iodide]
